Columns and labels:
Assay in all cases: Kinase panel study
Type in all cases: biochemical
Settings in all cases: read-out: Percentage of inhibition; for inhibition at 1 µM: 1000nM; for inhibition at 10 µM: 10000nM
ERBB4 (HER4) = target: T1, ERBB4 (HER4) (Homo sapiens, UniProt Q15303)
T1 construct: purchased Thermo Fisher Scientific
Outline: (§1)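 Inhibition was measured in an outsourced in vitro kinase panel using the ZLyte or Adapta format under the provider's standard procedures. Values are percent inhibition at 10 µM or 1 µM compound, and IC50s were also obtained.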

JAK3 = target: T2, JAK3 (Homo sapiens, UniProt P52333)
T2 construct: purchased Thermo Fisher Scientific
T2 sequence (P52333 1-1124): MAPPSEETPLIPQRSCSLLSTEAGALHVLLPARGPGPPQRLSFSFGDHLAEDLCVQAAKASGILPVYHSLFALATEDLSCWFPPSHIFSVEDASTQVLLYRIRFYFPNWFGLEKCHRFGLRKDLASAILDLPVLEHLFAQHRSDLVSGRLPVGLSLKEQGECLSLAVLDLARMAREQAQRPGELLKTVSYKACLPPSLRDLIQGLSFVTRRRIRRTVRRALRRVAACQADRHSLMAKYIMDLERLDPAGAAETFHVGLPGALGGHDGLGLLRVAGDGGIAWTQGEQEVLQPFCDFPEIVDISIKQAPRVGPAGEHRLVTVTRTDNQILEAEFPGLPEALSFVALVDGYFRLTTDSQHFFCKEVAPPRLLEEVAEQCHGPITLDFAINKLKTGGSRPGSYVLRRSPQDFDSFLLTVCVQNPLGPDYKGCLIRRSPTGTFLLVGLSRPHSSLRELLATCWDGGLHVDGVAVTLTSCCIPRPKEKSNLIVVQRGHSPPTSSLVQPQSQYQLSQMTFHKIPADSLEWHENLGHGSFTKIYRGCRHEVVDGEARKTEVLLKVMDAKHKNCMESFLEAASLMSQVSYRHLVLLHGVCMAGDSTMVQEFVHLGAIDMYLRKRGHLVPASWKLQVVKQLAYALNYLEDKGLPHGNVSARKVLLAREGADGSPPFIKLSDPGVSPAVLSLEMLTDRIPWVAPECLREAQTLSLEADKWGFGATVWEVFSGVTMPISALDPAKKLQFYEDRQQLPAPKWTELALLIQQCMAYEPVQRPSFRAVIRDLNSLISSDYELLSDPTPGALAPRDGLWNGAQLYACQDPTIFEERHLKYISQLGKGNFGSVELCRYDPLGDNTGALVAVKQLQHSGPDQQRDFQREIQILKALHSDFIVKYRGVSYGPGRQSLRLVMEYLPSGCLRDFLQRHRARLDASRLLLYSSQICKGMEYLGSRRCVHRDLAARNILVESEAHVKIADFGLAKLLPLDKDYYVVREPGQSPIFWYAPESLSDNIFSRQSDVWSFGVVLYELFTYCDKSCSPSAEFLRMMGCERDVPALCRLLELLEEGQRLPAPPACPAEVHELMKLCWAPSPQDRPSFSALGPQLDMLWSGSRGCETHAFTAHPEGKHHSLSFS
Outline: as §1

NTRK3 (TRKC) = target: T3, NTRK3 (TRKC) (Homo sapiens, UniProt Q16288)
T3 construct: purchased Thermo Fisher Scientific
Outline: as §1

DYRK3 = target: T4, DYRK3 (Homo sapiens, UniProt O43781)
T4 construct: purchased Thermo Fisher Scientific
T4 sequence (O43781 1-588): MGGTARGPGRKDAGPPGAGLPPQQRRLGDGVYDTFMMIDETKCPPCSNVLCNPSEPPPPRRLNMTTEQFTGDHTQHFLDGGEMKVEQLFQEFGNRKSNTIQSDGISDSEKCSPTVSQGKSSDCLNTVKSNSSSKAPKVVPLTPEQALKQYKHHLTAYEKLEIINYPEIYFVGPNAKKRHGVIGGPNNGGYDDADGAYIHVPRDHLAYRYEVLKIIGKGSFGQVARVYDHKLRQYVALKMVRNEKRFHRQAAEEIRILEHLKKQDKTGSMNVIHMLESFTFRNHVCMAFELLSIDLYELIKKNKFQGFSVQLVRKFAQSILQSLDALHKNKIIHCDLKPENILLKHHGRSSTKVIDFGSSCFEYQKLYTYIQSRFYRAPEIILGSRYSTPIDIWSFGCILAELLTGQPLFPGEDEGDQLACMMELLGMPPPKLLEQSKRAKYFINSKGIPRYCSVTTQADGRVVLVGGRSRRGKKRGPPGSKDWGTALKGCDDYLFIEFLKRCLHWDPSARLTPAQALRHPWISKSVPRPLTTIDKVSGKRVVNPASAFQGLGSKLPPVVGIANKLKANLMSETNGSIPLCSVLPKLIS
Outline: as §1

RPS6KA2 (RSK3) = target: T5, RPS6KA2 (RSK3) (Homo sapiens, UniProt Q15349)
T5 construct: purchased Thermo Fisher Scientific
Outline: as §1

NTRK2 (TRKB) = target: T6, NTRK2 (TRKB) (Homo sapiens, UniProt Q16620)
T6 construct: purchased Thermo Fisher Scientific
Outline: as §1

LRRK2 R1441C = target: T7, LRRK2 R1441C (Homo sapiens, UniProt Q5S007, R1441C)
T7 construct: purchased Thermo Fisher Scientific
Outline: as §1

T7 sequence (Q5S007 970-2527 R1441C limits assumed): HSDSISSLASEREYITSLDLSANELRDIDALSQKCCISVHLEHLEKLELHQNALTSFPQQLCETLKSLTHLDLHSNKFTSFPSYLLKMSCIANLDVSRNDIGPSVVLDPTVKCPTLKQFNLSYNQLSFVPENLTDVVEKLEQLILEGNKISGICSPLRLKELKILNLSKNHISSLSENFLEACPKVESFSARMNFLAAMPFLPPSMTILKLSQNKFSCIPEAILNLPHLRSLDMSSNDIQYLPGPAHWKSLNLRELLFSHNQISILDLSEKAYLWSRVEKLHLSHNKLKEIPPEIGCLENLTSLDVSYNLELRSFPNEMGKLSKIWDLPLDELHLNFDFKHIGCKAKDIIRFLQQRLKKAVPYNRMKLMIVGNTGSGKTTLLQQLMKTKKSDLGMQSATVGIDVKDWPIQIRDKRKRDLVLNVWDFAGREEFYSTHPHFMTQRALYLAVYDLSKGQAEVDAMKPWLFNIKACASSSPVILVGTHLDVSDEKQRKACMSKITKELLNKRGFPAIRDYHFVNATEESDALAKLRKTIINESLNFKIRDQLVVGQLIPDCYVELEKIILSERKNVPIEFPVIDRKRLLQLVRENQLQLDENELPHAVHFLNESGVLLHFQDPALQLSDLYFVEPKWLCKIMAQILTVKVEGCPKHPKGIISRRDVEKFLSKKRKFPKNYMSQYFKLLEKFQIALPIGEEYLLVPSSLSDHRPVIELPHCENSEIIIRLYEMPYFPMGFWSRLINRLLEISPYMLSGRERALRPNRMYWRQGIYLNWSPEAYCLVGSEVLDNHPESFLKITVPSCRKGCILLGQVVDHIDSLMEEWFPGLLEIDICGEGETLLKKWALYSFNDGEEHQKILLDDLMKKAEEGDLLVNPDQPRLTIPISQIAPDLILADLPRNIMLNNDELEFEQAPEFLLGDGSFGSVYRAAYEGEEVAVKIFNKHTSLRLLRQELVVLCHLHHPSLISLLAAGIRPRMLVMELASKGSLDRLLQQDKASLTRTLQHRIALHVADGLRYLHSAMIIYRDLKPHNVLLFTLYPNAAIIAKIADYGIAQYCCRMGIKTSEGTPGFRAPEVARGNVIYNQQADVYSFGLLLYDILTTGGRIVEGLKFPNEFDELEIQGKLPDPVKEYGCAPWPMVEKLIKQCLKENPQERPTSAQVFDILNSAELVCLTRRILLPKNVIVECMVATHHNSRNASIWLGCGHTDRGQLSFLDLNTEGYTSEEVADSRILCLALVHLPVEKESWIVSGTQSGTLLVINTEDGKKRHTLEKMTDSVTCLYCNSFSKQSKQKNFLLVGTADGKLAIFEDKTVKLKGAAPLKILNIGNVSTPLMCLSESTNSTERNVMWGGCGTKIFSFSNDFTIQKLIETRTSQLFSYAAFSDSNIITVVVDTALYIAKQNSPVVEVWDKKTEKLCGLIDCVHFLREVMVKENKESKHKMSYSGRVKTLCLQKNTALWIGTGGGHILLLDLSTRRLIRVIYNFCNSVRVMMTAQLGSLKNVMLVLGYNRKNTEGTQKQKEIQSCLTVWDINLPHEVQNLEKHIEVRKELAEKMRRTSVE
T3 sequence (Q16288 32-839): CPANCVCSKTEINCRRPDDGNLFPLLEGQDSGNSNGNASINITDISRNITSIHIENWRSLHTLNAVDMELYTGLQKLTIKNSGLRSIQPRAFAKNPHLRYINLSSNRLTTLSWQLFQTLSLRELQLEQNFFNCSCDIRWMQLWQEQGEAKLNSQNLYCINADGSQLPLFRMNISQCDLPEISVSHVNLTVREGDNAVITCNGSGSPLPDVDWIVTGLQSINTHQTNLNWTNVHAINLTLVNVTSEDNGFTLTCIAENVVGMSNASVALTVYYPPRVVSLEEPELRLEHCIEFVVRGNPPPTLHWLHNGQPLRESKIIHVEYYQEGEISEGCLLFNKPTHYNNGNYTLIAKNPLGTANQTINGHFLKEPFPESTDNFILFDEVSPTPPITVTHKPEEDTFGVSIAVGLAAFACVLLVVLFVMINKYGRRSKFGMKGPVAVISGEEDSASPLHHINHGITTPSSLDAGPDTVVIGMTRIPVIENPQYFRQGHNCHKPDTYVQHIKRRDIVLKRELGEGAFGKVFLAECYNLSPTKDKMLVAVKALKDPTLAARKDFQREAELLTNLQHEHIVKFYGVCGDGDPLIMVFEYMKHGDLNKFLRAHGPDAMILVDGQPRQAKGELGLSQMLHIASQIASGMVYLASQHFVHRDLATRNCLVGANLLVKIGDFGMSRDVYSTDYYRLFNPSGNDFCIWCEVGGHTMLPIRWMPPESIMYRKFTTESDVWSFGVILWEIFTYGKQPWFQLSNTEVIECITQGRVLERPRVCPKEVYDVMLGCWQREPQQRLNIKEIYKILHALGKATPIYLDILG
T1 sequence (Q15303 26-1308): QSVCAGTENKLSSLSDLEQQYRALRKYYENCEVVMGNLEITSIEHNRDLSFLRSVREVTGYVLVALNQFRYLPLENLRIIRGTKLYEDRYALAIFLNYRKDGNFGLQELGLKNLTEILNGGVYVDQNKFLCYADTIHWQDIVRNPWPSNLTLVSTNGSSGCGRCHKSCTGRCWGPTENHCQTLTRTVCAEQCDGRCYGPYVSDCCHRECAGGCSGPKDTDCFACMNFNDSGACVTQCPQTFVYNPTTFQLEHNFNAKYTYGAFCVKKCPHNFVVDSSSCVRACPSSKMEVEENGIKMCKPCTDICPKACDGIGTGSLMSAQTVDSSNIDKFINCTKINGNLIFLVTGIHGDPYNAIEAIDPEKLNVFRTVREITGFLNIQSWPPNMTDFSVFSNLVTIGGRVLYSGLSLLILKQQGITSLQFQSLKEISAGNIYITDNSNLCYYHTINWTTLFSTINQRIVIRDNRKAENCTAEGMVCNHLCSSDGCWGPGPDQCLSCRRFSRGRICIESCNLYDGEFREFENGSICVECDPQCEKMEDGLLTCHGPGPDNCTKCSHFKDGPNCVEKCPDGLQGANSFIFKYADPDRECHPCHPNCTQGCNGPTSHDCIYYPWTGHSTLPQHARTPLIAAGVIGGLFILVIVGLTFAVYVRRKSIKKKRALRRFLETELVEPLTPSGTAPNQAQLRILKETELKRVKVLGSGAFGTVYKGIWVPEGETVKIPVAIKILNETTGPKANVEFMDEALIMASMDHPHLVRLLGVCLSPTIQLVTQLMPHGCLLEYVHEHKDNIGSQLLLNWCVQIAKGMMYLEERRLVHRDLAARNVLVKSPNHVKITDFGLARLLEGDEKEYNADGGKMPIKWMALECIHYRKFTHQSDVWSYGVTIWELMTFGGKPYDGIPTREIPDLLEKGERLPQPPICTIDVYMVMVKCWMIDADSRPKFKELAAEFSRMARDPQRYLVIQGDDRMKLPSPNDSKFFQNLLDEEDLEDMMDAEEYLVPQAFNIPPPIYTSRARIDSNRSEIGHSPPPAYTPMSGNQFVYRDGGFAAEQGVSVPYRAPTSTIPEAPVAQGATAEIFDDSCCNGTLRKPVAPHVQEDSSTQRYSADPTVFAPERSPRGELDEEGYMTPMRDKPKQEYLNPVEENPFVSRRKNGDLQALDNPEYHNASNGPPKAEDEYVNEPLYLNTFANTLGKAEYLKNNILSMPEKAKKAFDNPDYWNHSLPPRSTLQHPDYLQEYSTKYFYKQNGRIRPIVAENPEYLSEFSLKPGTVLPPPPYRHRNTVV
T5 sequence (Q15349 whole entry): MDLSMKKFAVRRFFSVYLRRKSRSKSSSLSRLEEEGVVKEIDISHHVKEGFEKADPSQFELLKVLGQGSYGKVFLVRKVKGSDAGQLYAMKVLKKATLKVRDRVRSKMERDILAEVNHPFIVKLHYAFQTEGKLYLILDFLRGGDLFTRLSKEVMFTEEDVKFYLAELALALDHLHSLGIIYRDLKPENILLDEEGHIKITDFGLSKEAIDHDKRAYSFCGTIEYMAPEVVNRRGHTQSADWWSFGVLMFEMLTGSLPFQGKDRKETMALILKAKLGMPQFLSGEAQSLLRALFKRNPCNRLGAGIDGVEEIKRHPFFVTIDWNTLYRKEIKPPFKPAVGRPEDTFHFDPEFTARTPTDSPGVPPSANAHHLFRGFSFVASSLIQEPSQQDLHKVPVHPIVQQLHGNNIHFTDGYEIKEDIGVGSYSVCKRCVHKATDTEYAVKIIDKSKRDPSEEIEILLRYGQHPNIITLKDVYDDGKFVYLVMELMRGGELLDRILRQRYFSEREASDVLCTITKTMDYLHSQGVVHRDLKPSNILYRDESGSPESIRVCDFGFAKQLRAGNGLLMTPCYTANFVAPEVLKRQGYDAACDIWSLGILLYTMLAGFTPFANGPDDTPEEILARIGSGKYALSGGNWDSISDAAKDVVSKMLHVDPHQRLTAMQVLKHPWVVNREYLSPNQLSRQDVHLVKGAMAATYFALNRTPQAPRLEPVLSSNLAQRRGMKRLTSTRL

SMILES | inhibition at 1 µM (ERBB4 (HER4)) [%] | inhibition at 10 µM (ERBB4 (HER4)) [%] | inhibition at 1 µM (JAK3) [%] | inhibition at 10 µM (JAK3) [%] | inhibition at 1 µM (NTRK3 (TRKC)) [%] | inhibition at 10 µM (NTRK3 (TRKC)) [%] | inhibition at 1 µM (DYRK3) [%] | inhibition at 10 µM (DYRK3) [%] | inhibition at 1 µM (RPS6KA2 (RSK3)) [%] | inhibition at 10 µM (RPS6KA2 (RSK3)) [%] | inhibition at 1 µM (NTRK2 (TRKB)) [%] | inhibition at 10 µM (NTRK2 (TRKB)) [%] | inhibition at 1 µM (LRRK2 R1441C) [%] | inhibition at 10 µM (LRRK2 R1441C) [%]
COc1ccc2c(c1OC)c(=O)n1c3ccc(O)cc3c3ccnc2c31 [MW01, 5-Hydroxy-10,11-dimethoxy-9H-benzo[c]indolo[3,2,1-ij][1,5]naphthyridin-9-one] | -3 | 4 | 9 | 20 | 42 | 66 | 17 | 43 | 6 | 11 | 35 | 68 | 83 | 86
COc1ccc2cc3c(N)nn(C(=O)c4cccc(N(C)C)c4)c3nc2c1 [MW05, (3-Amino-7-methoxypyrazolo[3,4-b]quinolin-1-yl)-[3-(dimethylamino)phenyl]methanone] | 5 | -11 | 4 | -6 | 10 | 11 | 5 | 7 | 5 | 6 | 13 | 42 | -2 | 3
